In patent publication US12590062B2, “PD-1/PD-L1 inhibitors” (Gilead Sciences, Inc., priority 2017, dated 2026) one finds IC50, EC50 and AC50 data, which are given here for 26 compounds.

Usually IC50 stands for the concentration that gives 50% inhibition. As usually defined, the EC50 is the concentration needed to bring the measured effect to its halfway point. One may read the AC50 as the midpoint of the concentration-response curve, whichever way the signal moves.

One experiment addresses PD-1/PD-L1 (Homo sapiens, UniProt Q9NZQ7). Description: PD-1/PD-L1 biochemical protein-protein interaction assay (ALPHA). The experiment is classed as binding. The settings on record: 0.3 nM His tagged PD-L1, 2.5 nM biotinylated Fc-PD-1, 60 minutes at 25° C., read-out: IC50 PD-L1-PD-1 Alpha IC50-mono PD-L1-fcP-D1. The method, boiled down:
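Bead proximity read-out: compound-driven loss of ALPHA signal between anti-His acceptor and streptavidin donor beads (20 μg/mL acceptor). Proteins: 0.3 nM His-PD-L1, 2.5 nM biotin-Fc-PD-1, final. 60 min, 25° C, Hepes pH 7.4 buffer. IC50 via four-parameter dose-response fit.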

The target in a further experiment is T1, PD-1/PD-L1 interaction (Homo sapiens, UniProt Q9NZQ7).
T1 construct: expressed in transfected cells; host or cells: CHO cells (aAPC-PD-L1) co-cultured with Jurkat cells overexpressing PD-1 and an NFAT-luciferase reporter
T1 sequence (Q9NZQ7 19-290): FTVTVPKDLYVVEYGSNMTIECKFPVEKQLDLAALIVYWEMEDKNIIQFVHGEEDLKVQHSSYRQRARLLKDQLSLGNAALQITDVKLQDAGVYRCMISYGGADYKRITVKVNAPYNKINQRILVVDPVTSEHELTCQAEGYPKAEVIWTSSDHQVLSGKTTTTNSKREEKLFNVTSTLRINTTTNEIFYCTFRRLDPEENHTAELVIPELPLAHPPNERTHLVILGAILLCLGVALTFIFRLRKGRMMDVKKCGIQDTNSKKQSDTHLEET
Description: PD-1/PD-L1 NFAT reporter co-culture assay. Type of experiment: cell-based. The settings on record: Jurkat PD-1 NFAT-luciferase cells co-cultured with aAPC-PD-L1 CHO cells, 6 hrs at 37° C.; read-out: EC50 NFAT Luciferase. The method, boiled down:
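First, CHO cells displaying anti-CD3 antibody and PD-L1 were plated overnight. Next, compound-treated PD-1 Jurkat NFAT-luciferase reporter cells in 2% FBS RPMI were added for 6 h at 37 °C. Finally, ONE-Glo luminescence was read and EC50 values fitted with a four-parameter equation.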

Another experiment has as its target T2, PD-L1 (Homo sapiens, UniProt Q9NZQ7).
T2 construct: determine if they can specifically dimerize the extracellular domains of PD-L1
Description: PD-L1/PD-L1 dimerization biochemical protein-protein interaction assay (ALPHA). The experiment is classed as binding. The settings on record: compound-induced PD-L1 dimerization, head prints '1 nM' (0.5 nM His-tagged PD-L1 and 0.5 nM FLAG-tagged PD-L1), read-out: AC50 PDL1 Dimer Alpha 1 nM. The method, boiled down: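 After 2 h at 25 °C with compound, His- and FLAG-tagged PD-L1 ECDs (each 0.5 nM final; 25 mM Hepes pH 7.4, 150 mM NaCl) were detected by sequential anti-His acceptor and anti-FLAG donor bead incubations. Dose-response curves fitted to four-parameter equation for AC50.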

PD-1/PD-L1, sequence (Q9NZQ7 19-238 limits assumed): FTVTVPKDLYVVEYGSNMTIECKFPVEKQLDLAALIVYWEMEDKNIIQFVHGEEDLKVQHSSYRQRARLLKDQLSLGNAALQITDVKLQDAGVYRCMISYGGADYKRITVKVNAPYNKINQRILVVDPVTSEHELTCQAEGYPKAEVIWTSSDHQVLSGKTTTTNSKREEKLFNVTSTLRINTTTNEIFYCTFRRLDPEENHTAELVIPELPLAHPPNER
T2 sequence (Q9NZQ7 19-238 limits assumed): as above
T2 sequence (Q9NZQ7 19-238 limits assumed): as above

Turning to `CS(=O)(=O)c1cncc(COc2nc(O[C@H]3CCc4c(-c5cccc6c5CC[C@@H]6Oc5nc(OCc6cncc(S(C)(=O)=O)c6)c(CN6CC[C@@H](O)C6)cc5Cl)cccc43)c(Cl)cc2CN2CC[C@@H](O)C2)c1` [Example 689], at PD-1/PD-L1, the IC50 is 0.064 nM. For the same compound, the EC50 at PD-1/PD-L1 interaction was 139 nM. At PD-L1, the AC50 was 114 nM.
In the same order, the values of `COc1cc(-c2cccc(-c3cccc(COc4nc(OC)c(CNC[C@@H]5CCC(=O)N5)cc4Br)c3Cl)c2Cl)ccc1CNC[C@@H]1CCC(=O)N1` [Example 542] are 1.24 nM, 197 nM and 136 nM.
With `COc1nc(O[C@H]2CCc3c(-c4cccc(-c5ccc(CN6CC7(CCC(=O)N7)C6)cc5)c4Cl)cccc32)c(Cl)cc1CN1CC2(CCC(=O)N2)C1` [Example 773], the IC50 at PD-1/PD-L1 worked out at 0.638 nM. For the same compound, the EC50 at PD-1/PD-L1 interaction turned out to be 2100 nM. For the same compound, the AC50 on PD-L1 is at least 10000 nM.
With `C[C@@](CO)(NCc1cc(Cl)c(O[C@H]2CCc3c(-c4cccc(-c5ccc(OCCNCCO)cc5)c4Cl)cccc32)nc1OCc1cncc(C#N)c1)C(=O)O` [Example 674], the IC50 on PD-1/PD-L1 was 0.064 nM. Further, the EC50 at PD-1/PD-L1 interaction turned out to be 44 nM. The AC50 at PD-L1 was found to be 11.3 nM.
For `COc1nc(O[C@H]2CCc3c(-c4cccc(-c5ccc(CNC[C@@H]6CCC(=O)N6)cc5)c4Cl)cccc32)c(Cl)cc1CNC[C@@H]1CCC(=O)N1` [Example 730], in that order: 0.74 nM, 100 nM and 40.7 nM.
In the same order, the values of `Cc1c(COc2cc(OCc3cncc(C#N)c3)c(CNC[C@@H](O)CC(=O)O)cc2Cl)cccc1-c1cccc(-c2ccc3c(c2)CC(NCC2CCC(=O)N2)C3)c1C` (stereo partly drawn) [Example 439] are 0.376 nM, 270 nM and 154 nM.
For the compound `C[C@](CO)(NCc1cc(Br)c(OCc2cccc(-c3cccc(-c4ccc5c(c4)C[C@@H](N)C5)c3Cl)c2Cl)nc1OCc1cncc(C#N)c1)C(=O)O` [Example 553], the IC50 at PD-1/PD-L1 is 0.101 nM. At PD-1/PD-L1 interaction, the EC50 was 70 nM. The AC50 at PD-L1 worked out at 17.7 nM.
Regarding `COc1nc(-c2cccc(-c3csc(-c4cnc(CNC[C@@H]5CCC(=O)N5)c(OC)n4)c3)c2Cl)ccc1CNC[C@@H]1CCC(=O)N1` [Example 600], the IC50 at PD-1/PD-L1 was found to be 0.39 nM. At PD-1/PD-L1 interaction, the EC50 is 240 nM. Besides, the concentration at half-maximal activity (AC50) at PD-L1 is 261 nM.
For `CS(=O)(=O)c1cncc(COc2nc(OCc3cccc(-c4cccc(-c5ccc(OCCNCCO)cc5)c4Cl)c3Cl)c(Cl)cc2CN2C[C@@H](O)C[C@H]2C(=O)O)c1` [Example 303, (2S,4S)-1-((5-chloro-6-((2,2′-dichloro-4″-(2-((2-hydroxyethyl)amino)ethoxy)-[1,1′:3′,1″-terphenyl]-3-yl)methoxy)-2-((5-(methylsulfonyl)pyridin-3-yl)methoxy)pyridin-3-yl)methyl)-4-hydroxypyrrolidine-2-carboxylic acid], in that order: 0.166 nM, 289 nM and 101 nM.
With `C[C@@](CO)(NCc1cc(Cl)c(OCc2cccc(-c3cccc(-c4ccc(OCCNCCO)cc4)c3Cl)c2Cl)nc1OCc1cc(C#N)cc(C#N)c1)C(=O)O` [Example 352, (S)-2-(((5-chloro-6-((2,2′-dichloro-4″-(2-((2-hydroxyethyl)amino)ethoxy)-[1,1′:3′,1″-terphenyl]-3-yl)methoxy)-2-((3,5-dicyanobenzyl)oxy)pyridin-3-yl)methyl)amino)-3-hydroxy-2-methylpropanoic acid], the IC50 on PD-1/PD-L1 is 0.207 nM. Besides, the EC50 on PD-1/PD-L1 interaction is 105 nM. Moreover, the AC50 at PD-L1 was found to be 56.3 nM.
As to `Cc1c(COc2cc(OCc3cncc(C#N)c3)c(CNC[C@@H](O)CC(=O)O)cc2Cl)cccc1-c1cccc(OCc2ccc(CNC[C@@H](O)CC(=O)O)cn2)c1C` [Example 392, (S)-4-(((6-(((3′-((4-((((S)-3-carboxy-2-hydroxypropyl)amino)methyl)-2-chloro-5-((5-cyanopyridin-3-yl)methoxy)phenoxy)methyl)-2,2′-dimethyl-[1,1′-biphenyl]-3-yl)oxy)methyl)pyridin-3-yl)methyl)amino)-3-hydroxybutanoic acid], on PD-1/PD-L1, the IC50 is 0.051 nM. Further, the EC50 at PD-1/PD-L1 interaction was found to be 351 nM. For the same compound, the AC50 on PD-L1 came out at 232 nM.
In the case of `Cc1c(COc2cc(O)c(CNCCCP(=O)(O)O)cc2Cl)cccc1-c1cccc(COc2cc(OCc3cncc(C#N)c3)c(CNCCCP(=O)(O)O)cc2Cl)c1C` [Example 294, (3-((5-chloro-4-((3′-((2-chloro-5-((5-cyanopyridin-3-yl)methoxy)-4-(((3-phosphonopropyl)amino)methyl)phenoxy)methyl)-2,2′-dimethyl-[1,1′-biphenyl]-3-y)methoxy)-2-hydroxybenzyl)amino)propyl)phosphonic acid], the IC50 on PD-1/PD-L1 was determined as 9.24 nM. At PD-1/PD-L1 interaction, the EC50 came out at 714 nM. The AC50 on PD-L1 is 547 nM.
Turning to `COc1nc(-c2cccc(-c3cccc4c3CC[C@@H]4Oc3nc(OCc4cncc(C#N)c4)c(CN[C@@](C)(CO)C(=O)O)cc3Br)c2Cl)ccc1CNC[C@@H]1CCC(=O)N1` [Example 747], at PD-1/PD-L1, the IC50 was 0.064 nM. Moreover, at PD-1/PD-L1 interaction, the EC50 was determined as 10 nM. For the same compound, the AC50 on PD-L1 came out at 5.36 nM.
In the case of `COc1nc(-c2cccc(-c3cccc4c3CC[C@@H]4Oc3nc(OC)c(CN[C@@](C)(CO)C(=O)O)cc3Cl)c2Cl)ccc1CN[C@@H]1CCC[C@@H]1O` [Example 645], on PD-1/PD-L1, the IC50 came out at 0.064 nM. The EC50 on PD-1/PD-L1 interaction was 30 nM. In addition, the AC50 on PD-L1 amounted to 30.7 nM.
In the same order, the values of `COc1nc(-c2cccc(-c3cccc(-c4cnn(CCN)c4)c3Cl)c2Cl)ccc1CNC[C@@H]1CCC(=O)N1` [Example 596, (S)-5-((((6-(3′-(1-(2-aminoethyl)-1H-pyrazol-4-yl)-2,2′-dichloro-[1,1′-biphenyl]-3-yl)-2-methoxypyridin-3-yl)methyl)amino)methyl)pyrrolidin-2-one] are 0.671 nM, 169 nM and 415 nM.
Turning to `Cc1c(COc2cc(OCc3cncc(C(N)=O)c3)c(CN[C@@](C)(CO)C(=O)O)cc2Cl)cccc1-c1cccc(-c2ccc3c(c2)[C@@H](O)C[C@H]3N)c1C` [Example 470], the IC50 on PD-1/PD-L1 turned out to be 0.096 nM. Moreover, the EC50 at PD-1/PD-L1 interaction was 217 nM. In addition, at PD-L1, the AC50 turned out to be 127 nM.
In the same order, the values of `COc1nc(-c2cccc(-c3cccc4c3CC[C@@H]4Oc3nc(OCc4cncc(C#N)c4)c(CN[C@@](C)(CO)C(=O)O)cc3Br)c2Br)ccc1CNC[C@@H]1CCC(=O)N1` [Example 699] are 0.12 nM, 136 nM and 24.7 nM.
Turning to `CNC(=O)c1cc(-c2cccc(-c3cccc(COc4cc(OCc5cncc(C#N)c5)c(CNC[C@@H](O)CC(=O)O)cc4Cl)c3C)c2C)ccc1OCCNCCO` [Example 458], the IC50 on PD-1/PD-L1 is 0.325 nM. In addition, the EC50 on PD-1/PD-L1 interaction is 429 nM. On PD-L1, the AC50 was determined as 139 nM.
In the case of `COc1nc(O[C@H]2CCc3c(-c4cccc(-c5cc(C)c(CNC[C@@H]6CCC(=O)N6)c(OC)n5)c4Cl)cccc32)c(Cl)cc1CN1CC[C@](C)(C(=O)O)C1` [Example 489], the IC50 on PD-1/PD-L1 was determined as 0.064 nM. For the same compound, the EC50 on PD-1/PD-L1 interaction turned out to be 18 nM. The AC50 on PD-L1 was determined as 18.3 nM.
For `COc1nc(Oc2cccc(-c3cccc(-c4ccc(CNC[C@@H]5CCC(=O)N5)c(OC)n4)c3Cl)c2Cl)ccc1CNC[C@@H]1CCC(=O)N1` [Example 428], in that order: 1.37 nM, 282 nM and 525 nM.
As to `Cc1c(COc2cc(OCc3cncc(C#N)c3)c(CN[C@@](C)(CO)C(=O)O)cc2Cl)cccc1-c1cccc(-c2ccc(OCCN3CCC4(CC3)CC(=O)N4)cc2)c1C` [Example 441], on PD-1/PD-L1, the IC50 is 0.212 nM. Also, at PD-1/PD-L1 interaction, the EC50 came out at 260 nM. Besides, the AC50 on PD-L1 turned out to be 301 nM.
With `COc1nc(O[C@H]2CCc3c(-c4cccc(-c5ccc(C6=NCCN6)c(OC)n5)c4Cl)cccc32)c(Br)cc1CN1CCCC[C@H]1C(=O)O` [Example 785], the IC50 on PD-1/PD-L1 worked out at 0.064 nM. Further, at PD-1/PD-L1 interaction, the EC50 amounted to 66 nM. Besides, the AC50 at PD-L1 was 16.1 nM.
With `COc1nc(O[C@H]2CCc3c(-c4cccc(-c5ccc(CNC[C@@H]6CCC(=O)N6)cc5)c4Cl)cccc32)c(Cl)cc1CN[C@H]1CCC[C@H]1O` [Example 716], at PD-1/PD-L1, the IC50 amounted to 0.403 nM. Also, the 50% effective concentration (EC50) on PD-1/PD-L1 interaction turned out to be 343 nM. For the same compound, the AC50 on PD-L1 amounted to 15.1 nM.
On to `COc1nc(-c2cccc(-c3cccc4c3CC[C@@H]4Oc3nc(OC)c(CN4CC[C@@H](c5nnn[nH]5)C4)cc3Cl)c2Cl)ccc1CNC[C@@H]1CCC(=O)N1` [Example 641], for which, on PD-1/PD-L1, the IC50 stood at 0.064 nM. Also, the EC50 on PD-1/PD-L1 interaction amounted to 60 nM. The AC50 at PD-L1 was 34.7 nM.
Take `COc1nc(-c2cccc(-c3cccc(-c4ccc5ncc(CNCCO)n5c4)c3Cl)c2Cl)ccc1CNCCO` [Example 620]: the IC50 on PD-1/PD-L1 was found to be 2.84 nM. The EC50 at PD-1/PD-L1 interaction was at least 50000 nM. At PD-L1, the AC50 was at least 10000 nM.
Turning to `COc1cc(-c2cccc(-c3cccc(COc4cc(OCc5cncc(C#N)c5)c(CN[C@@](C)(CO)C(=O)O)cc4Cl)c3C)c2C)ccc1C1=NCCN1` [Example 501], the IC50 at PD-1/PD-L1 was determined as 0.064 nM. For the same compound, at PD-1/PD-L1 interaction, the EC50 was 60 nM. Moreover, the AC50 on PD-L1 is 35.3 nM.
